Several values for one entry are separate records, joined by “and”; a condition that tells them apart may be missing. Identical values can stand only once.

The target in series [1] is LAT1 (Homo sapiens, UniProt Q01650). Briefly: Gabapentin uptake by HIBCPP cells. It counts as cell-based.
A short description of series [2]: Transcellular transport. The settings on record: human.
Series [3] deals with HIBCPP cell layer. Kind of series: Transcellular transport. The conditions noted are these: for Papp,correct in the BL-to-AP direction relative to the AP-to-BL direction: BL-to-AP greater than AP-to-BL; for Papp,correct AP-to-BL / Papp,correct BL-to-AP: corrected by lucifer yellow.
Series [4] relates to PMAT. Kind of series: MPP+ uptake by HIBCPP cells. The class given is cell-based, human. The conditions noted are these: 5 min.
For series [5], the target named is T1, SLC35F2 (Homo sapiens, UniProt Q8IXU6).
T1 sequence (Q8IXU6 1-374): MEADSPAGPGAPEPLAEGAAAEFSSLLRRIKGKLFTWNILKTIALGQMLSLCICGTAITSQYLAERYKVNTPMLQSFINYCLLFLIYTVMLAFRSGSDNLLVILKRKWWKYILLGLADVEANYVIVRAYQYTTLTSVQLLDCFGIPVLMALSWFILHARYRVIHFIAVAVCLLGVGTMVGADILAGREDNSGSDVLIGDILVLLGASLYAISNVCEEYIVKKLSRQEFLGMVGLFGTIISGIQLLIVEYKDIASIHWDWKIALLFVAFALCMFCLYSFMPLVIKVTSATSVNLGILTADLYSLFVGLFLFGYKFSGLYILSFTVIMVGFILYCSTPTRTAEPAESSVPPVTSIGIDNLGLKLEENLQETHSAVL
Briefly: YM155 uptake by HIBCPP cells. It counts as cell-based. The conditions noted are these: 30 s.

The target of series [6] is T2, GLUT1 (Homo sapiens, UniProt P11166).
T2 sequence (P11166 1-492): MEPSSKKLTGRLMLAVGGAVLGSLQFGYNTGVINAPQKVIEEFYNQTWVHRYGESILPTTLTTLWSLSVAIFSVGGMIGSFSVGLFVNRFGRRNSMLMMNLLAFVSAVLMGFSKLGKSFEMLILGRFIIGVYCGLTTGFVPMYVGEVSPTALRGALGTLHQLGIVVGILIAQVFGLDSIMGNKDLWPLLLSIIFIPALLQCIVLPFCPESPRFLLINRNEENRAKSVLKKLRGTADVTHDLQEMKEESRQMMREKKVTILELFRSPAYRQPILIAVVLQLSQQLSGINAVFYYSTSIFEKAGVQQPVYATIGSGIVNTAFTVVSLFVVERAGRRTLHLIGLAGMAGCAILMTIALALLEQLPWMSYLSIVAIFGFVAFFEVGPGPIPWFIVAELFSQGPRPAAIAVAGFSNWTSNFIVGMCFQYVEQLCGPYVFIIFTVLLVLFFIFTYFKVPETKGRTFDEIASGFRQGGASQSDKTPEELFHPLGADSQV
Briefly: [3H]3-O-methylglucose uptake by HIBCPP cells. The class given is cell-based. The settings on record: 10 s, glucose-free IB.

Series [7] concerns the target T3, MCT1 (Homo sapiens, UniProt P53985).
T3 sequence (P53985 1-500): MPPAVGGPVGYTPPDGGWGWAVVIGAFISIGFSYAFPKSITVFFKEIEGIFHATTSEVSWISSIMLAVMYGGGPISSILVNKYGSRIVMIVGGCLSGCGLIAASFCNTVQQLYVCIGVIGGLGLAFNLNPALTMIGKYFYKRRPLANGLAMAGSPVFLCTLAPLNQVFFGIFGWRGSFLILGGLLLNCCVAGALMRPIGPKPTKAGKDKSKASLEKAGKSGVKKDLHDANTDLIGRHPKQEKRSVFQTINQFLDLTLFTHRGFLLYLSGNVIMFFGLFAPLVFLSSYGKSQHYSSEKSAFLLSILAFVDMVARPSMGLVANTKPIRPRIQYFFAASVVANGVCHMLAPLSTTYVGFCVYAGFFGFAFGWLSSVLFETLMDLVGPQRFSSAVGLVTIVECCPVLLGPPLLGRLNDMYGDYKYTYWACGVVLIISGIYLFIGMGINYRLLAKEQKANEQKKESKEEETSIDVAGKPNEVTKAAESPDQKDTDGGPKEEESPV
Briefly: [14C]L-lactate uptake by HIBCPP cells. It counts as cell-based. The conditions noted are these: IB pH 6.0.

Series [8] concerns the target GLAST (Homo sapiens, UniProt P43003). Briefly: [3H]L-glutamate uptake by HIBCPP cells. The class given is cell-based. The conditions noted are these: 1 min.
Series [9] has as its target CAT1 (Homo sapiens, UniProt P30825). Briefly: [3H]L-arginine uptake by HIBCPP cells. It counts as cell-based. The settings on record: for Relative uptake (% of control): 1 min.
Series [10] relates to OATP1B3. Briefly: Telmisartan uptake by HIBCPP cells. The class given is cell-based, human. The settings on record: telmisartan uptake at 4°C, 30 s.
Setting [11] is: Papp,correct (AP-to-BL)/Papp,correct (BL-to-AP).

Chain of GLAST (P43003 whole entry): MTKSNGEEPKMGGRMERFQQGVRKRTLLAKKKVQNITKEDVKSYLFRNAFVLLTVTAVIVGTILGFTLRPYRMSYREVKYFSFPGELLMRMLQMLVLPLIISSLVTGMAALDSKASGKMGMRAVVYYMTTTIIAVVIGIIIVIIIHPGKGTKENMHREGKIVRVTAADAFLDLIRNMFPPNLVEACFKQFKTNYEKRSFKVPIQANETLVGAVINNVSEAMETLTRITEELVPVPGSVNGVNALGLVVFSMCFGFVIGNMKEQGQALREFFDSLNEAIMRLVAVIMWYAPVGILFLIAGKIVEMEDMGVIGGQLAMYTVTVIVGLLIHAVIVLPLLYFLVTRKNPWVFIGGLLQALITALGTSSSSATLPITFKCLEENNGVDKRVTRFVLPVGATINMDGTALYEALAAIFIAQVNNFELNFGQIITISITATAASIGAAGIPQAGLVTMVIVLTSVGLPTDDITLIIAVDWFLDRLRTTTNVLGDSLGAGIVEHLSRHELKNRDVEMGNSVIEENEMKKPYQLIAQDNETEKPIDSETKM
Chain of CAT1 (P30825 whole entry): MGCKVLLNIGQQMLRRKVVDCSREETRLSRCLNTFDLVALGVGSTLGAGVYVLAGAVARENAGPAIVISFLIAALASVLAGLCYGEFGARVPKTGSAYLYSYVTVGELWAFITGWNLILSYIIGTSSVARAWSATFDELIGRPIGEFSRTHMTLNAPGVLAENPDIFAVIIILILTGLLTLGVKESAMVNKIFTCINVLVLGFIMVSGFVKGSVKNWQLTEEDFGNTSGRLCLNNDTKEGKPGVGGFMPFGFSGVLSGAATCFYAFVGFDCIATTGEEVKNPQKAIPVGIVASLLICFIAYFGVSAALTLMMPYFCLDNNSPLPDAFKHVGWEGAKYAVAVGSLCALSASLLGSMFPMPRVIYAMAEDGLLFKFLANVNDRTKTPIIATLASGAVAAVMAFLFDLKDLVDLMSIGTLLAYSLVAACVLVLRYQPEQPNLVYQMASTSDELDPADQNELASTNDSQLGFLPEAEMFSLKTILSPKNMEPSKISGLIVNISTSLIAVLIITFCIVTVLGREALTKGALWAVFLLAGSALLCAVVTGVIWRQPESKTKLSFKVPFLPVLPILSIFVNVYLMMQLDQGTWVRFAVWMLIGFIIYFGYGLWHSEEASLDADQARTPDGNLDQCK
Chain of LAT1 (Q01650 whole entry): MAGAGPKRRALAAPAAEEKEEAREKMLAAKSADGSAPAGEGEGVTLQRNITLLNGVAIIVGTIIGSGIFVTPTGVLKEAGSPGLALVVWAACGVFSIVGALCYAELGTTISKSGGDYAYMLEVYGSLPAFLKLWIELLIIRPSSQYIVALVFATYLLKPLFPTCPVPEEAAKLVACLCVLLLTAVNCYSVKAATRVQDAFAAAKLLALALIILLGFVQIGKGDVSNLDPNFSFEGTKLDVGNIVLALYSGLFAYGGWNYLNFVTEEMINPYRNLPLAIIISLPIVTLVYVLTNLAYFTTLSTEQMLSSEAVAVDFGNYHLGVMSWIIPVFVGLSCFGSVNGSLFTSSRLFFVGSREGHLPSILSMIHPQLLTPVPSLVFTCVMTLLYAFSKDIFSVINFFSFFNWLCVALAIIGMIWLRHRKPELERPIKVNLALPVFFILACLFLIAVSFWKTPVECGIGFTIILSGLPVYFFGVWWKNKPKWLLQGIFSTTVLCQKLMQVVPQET
Chain of LAT1 (P08195 102-630 partner): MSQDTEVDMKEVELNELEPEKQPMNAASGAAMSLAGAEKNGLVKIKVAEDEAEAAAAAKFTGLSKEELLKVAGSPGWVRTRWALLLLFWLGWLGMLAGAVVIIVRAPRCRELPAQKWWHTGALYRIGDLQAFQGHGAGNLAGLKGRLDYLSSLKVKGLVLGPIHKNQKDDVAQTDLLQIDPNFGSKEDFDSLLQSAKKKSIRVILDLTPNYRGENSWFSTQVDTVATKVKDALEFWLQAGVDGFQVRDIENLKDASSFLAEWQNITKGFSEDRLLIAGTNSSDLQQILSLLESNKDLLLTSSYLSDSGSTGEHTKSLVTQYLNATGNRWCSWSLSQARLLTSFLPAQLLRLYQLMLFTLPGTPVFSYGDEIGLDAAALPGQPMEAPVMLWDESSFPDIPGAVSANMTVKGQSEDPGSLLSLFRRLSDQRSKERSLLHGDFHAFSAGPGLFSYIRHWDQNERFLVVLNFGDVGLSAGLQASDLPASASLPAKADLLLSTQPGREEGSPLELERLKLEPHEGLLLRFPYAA

In the case of `NCC1(CC(=O)O)CCCCC1` [Gabapentin], the “Relative uptake (% of control)” value in series [1] (gabapentin uptake at 4°C, 1 min) is 9.24 ± 0.54 % of control. In addition, the “Decrease of uptake at low temperatures” value in series [1] (gabapentin uptake, low temperature (4°C)) is recorded as over 90%. The “Reduction of uptake into HIBCPP cells” value in [1] (gabapentin, at 4 °C or in the presence of respective inhibitor) is “more than 80%”. In series [2], the Papp A→B – broadly, how fast a substance crosses the layer from the apical side – was found to be 10.8 ± 0.6 ×10⁻⁶ cm/s; the Papp A→B at 2 h was found to be 14.1 ± 0.6 ×10⁻⁶ cm/s; the Papp B→A (as a rule, how fast a substance crosses the layer from the basolateral side) is 0.213 ± 0.078 ×10⁻⁶ cm/s; the basolateral-to-apical permeability (Papp B→A) at 2 h turned out to be 3 ± 0.08 ×10⁻⁶ cm/s. Moreover, the Efflux ratio in [3] (setting [11]) is recorded as 50.7.

In the case of `NCCc1c[nH]c2ccc(O)cc12` [Serotonin], the “Relative uptake (% of control)” value in series [4] (MPP+ uptake + 1 mM serotonin) is recorded as 48.6 ± 5.1 % of control.

Regarding `NC(N)=Nc1nc(CSCCC(N)=NS(N)(=O)=O)cs1` [Famotidine], the “Relative uptake (% of control)” value in [5] (YM155 uptake + 1 mM famotidine) is given as 40.0 ± 8.5 % of control.

Take `OC[C@H]1OC(O)[C@H](O)[C@@H](O)[C@@H]1O` (some centres unmarked) [Glucose]: in [6] ([3H]3-O-methylglucose uptake + 5.6 mM glucose), the “Relative uptake (% of control)” value is recorded as 54.7 ± 1.4 % of control.

Turning to `COCCn1c2c([n+](Cc3cnccn3)c1C)C(=O)c1ccccc1C2=O` [YM155], the “Relative uptake (% of control)” value in series [5] (YM155 uptake at 4°C) is listed as 27.8 ± 3.0 % of control. In series [2], this compound displayed an apical-to-basolateral permeability (Papp A→B) of 3.36 ± 0.34 ×10⁻⁶ cm/s, a Papp A→B at 2 h of 6.66 ± 0.34 ×10⁻⁶ cm/s, a Papp B→A of 1.32 ± 0.37 ×10⁻⁶ cm/s and an apparent permeability from basolateral to apical (Papp B→A) at 2 h of 4.59 ± 0.37 ×10⁻⁶ cm/s.

As for `Cc1[nH]nc(C(F)(F)F)c1Cc1sc2c(c1C(=O)N1C[C@](C)(O)CO1)c(=O)n(C)c(=O)n2C(C)C` [AZD3965], in series [7] ([14C]L-lactate uptake + 20 nM AZD3965, 30 s), the “Relative uptake (% of control)” value was 28.0 % of control and 28.0 ± 1.6 % of control.

`N[C@@H](CC(=O)O)C(=O)O` [L-Aspartic acid]: the “Relative uptake (% of control)” value is given as 65.3 ± 4.9 % of control in [8] ([3H]L-glutamate uptake + 1 mM L-aspartic acid) and 65.3 % of control in [8] ([3H]L-glutamate uptake + 1 mM L-aspartic acid, listed as L-aspartic acid).

Take “glutamic acid L-[2,3,4-^3H] [[^3H]L-Glutamate]”: the “Relative uptake (% of control)” value in [8] ([3H]L-glutamate uptake at 4°C) is reported as 17.7 ± 3.0 % of control; in series [8] ([3H]L-glutamate uptake at 4°C, listed as [^3H]L-glutamate), 17.7 % of control. The “Papp,correct in the BL-to-AP direction relative to the AP-to-BL direction” value in series [3] was “approximately 2 times”. Moreover, the Efflux ratio in series [3] (setting [11]) is recorded as 0.45; in series [3] (Papp,correct (AP-to-BL)/Papp,correct (BL-to-AP), listed as [^3H]L-glutamate) it was “below 1”.

With `Nc1cc(COc2c(Cl)cc(C[C@H](N)C(=O)O)cc2Cl)c2oc(-c3ccccc3)nc2c1` [JPH203], the “Relative uptake (% of control)” value in series [1] (gabapentin uptake + 10 μM JPH203, 1 min) was 13.1 ± 0.2 % of control.

In [2], `O=C1CN(/N=C/c2ccc(-c3ccc([N+](=O)[O-])cc3)o2)C(O)=N1` [Dantrolene, Dantrolene sodium] registered a Papp A→B of 5.98 ± 0.77 ×10⁻⁶ cm/s, a Papp A→B at 2 h of 9.28 ± 0.77 ×10⁻⁶ cm/s, a Papp B→A of 11.5 ± 0.9 ×10⁻⁶ cm/s and a basolateral-to-apical permeability (Papp B→A) at 2 h of 14.8 ± 0.9 ×10⁻⁶ cm/s. For the same compound, the “Papp,correct in the BL-to-AP direction relative to the AP-to-BL direction” value in series [3] is 2 times. The Efflux ratio in series [3] (setting [11]) amounted to 0.52.

Take `NC(N)=NCCC[C@H](N)C(=O)O` [[^3H]L-Arginine, arginine L-[2,3,4-^3H]]: in series [9] ([3H]L-arginine uptake at 4°C), the “Relative uptake (% of control)” value is reported as 6.80 ± 0.69 % of control. The “Decrease of uptake at low temperatures” value in series [9] ([3H]L-arginine uptake, low temperature (4°C)) is given as over 90%. In addition, the “Reduction of uptake into HIBCPP cells” value in series [9] ([3H]L-arginine, at 4 °C or in the presence of respective inhibitor) is listed as “more than 80%”. Also, the Efflux ratio entry in [3] (setting [11]) is reported as “exceed 1”.

Turning to `C[n+]1ccc(-c2ccccc2)cc1` [MPP^+, 1-methyl-4-phenylpyridinium], the “Relative uptake (% of control)” value in [4] (MPP+ uptake at 4°C) is 22.2 ± 5.5 % of control. Further, the Efflux ratio in series [3] (setting [11]) was 1.03.

As for `CCCc1nc2c(C)cc(-c3nc4ccccc4n3C)cc2n1Cc1ccc(-c2ccccc2C(=O)O)cc1` [Telmisartan], in series [10], the “Relative uptake (% of control)” value is 22.9 ± 1.4 % of control. For the same compound, in series [2], the Papp A→B at 2 h stood at 0.9 ± 0.23 ×10⁻⁶ cm/s, the Papp B→A is 10.5 ± 3.3 ×10⁻⁶ cm/s and the basolateral-to-apical permeability (Papp B→A) at 2 h is 13.8 ± 3.3 ×10⁻⁶ cm/s. In series [2] (Efflux ratio, Papp,correct (AP-to-BL)/Papp,correct (BL-to-AP)), the Efflux ratio is under 1.

For the compound `[14CH3][14CH](O)[14C](=O)[O-].[Na+]` [[^14C]L-Lactate, lactic acid L-[^14C(U)] Na salt], the “Relative uptake (% of control)” value in [7] ([14C]L-lactate uptake at 4°C, 30 s) is 17.7 % of control and 17.7 ± 0.4 % of control. Moreover, in series [3] (AP side pH 6.0 BL side pH 7.4), the “Papp AP-to-BL” value was 30.6 ± 2.0 × 10^–6 cm/sec, the “Papp BL-to-AP” value was 4.71 ± 0.14 × 10^–6 cm/sec, the “Papp,correct AP-to-BL” value was 27.3 ± 2.0 × 10^–6 cm/sec and the “Papp,correct BL-to-AP” value is reported as 1.44 ± 0.14 × 10^–6 cm/sec. In series [3] (AP side pH 6.0 BL side pH 7.4, Papp,correct (AP-to-BL)/(BL-to-AP)), the Efflux ratio worked out at 19.0. In series [3] (AP side pH 7.4 BL side pH 6.0), the “Papp AP-to-BL” value was 3.05 ± 0.09 × 10^–6 cm/sec, the “Papp BL-to-AP” value is recorded as 11.5 ± 0.1 × 10^–6 cm/sec and the “Papp,correct BL-to-AP” value is recorded as 8.20 ± 0.11 × 10^–6 cm/sec. Besides, in series [3] (AP side pH 7.4 BL side pH 7.4), the “Papp AP-to-BL” value is reported as 9.56 ± 0.20 × 10^–6 cm/sec, the “Papp BL-to-AP” value is 8.84 ± 0.36 × 10^–6 cm/sec, the “Papp,correct AP-to-BL” value is given as 6.26 ± 0.20 × 10^–6 cm/sec and the “Papp,correct BL-to-AP” value was 5.57 ± 0.36 × 10^–6 cm/sec. In addition, the Efflux ratio in [3] (AP side pH 7.4 BL side pH 7.4, Papp,correct (AP-to-BL)/(BL-to-AP)) is reported as 1.12.

Regarding `NCCC[C@H](N)C(=O)O` [L-Ornithine], in series [9] ([3H]L-arginine uptake + 1 mM L-ornithine), the “Relative uptake (% of control)” value was 18.7 ± 0.2 % of control.

For `[3H]CO[C@H]1[C@H](O)[C@@H](CO)OC(O)[C@@H]1O` (stereo partly drawn) [[^3H]3-O-Methylglucose, methyl-D-glucose 3-O-[methyl-^3H]], the “Relative uptake (% of control)” value in [6] ([3H]3-O-methylglucose uptake at 4°C) was 14.0 ± 1.3 % of control. The Efflux ratio in series [3] (setting [11]) was found to be 1.05.

(Values after PMC12913247 (Pharmaceutical Research, 2025).)
